The source of these data is PubChem BioAssay AID330 (DTP/NCI, 2004).

The experiment deals with P388 leukemia ip, CD2F1 mice, survival T/C. As to the kind of experiment: NCI In Vivo Anticancer Drug Screen. Data for tumor model P388 Leukemia (intraperitoneal) in CD2F1 (CDF1) mice. Particulars: endpoint: median survival time, higher = longer survival. The essentials: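 Mice carrying the transplanted tumor received test compound or vehicle. Survival was recorded in each group, and the value is the treated-group measurement divided by that of the vehicle-treated control group.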

The mark [1] stands for this setting: dose: 50.0 mg/kg/injection, schedule: Q01DX009 (ip), vehicle: Klucel (hydroxypropylcellulose) (HPC).
The mark [2] stands for this setting: dose: 100.0 mg/kg/injection, schedule: Q01DX009 (ip), vehicle: Klucel (hydroxypropylcellulose) (HPC).
[3] abbreviates: dose: 200.0 mg/kg/injection, schedule: Q01DX009 (ip), vehicle: Klucel (hydroxypropylcellulose) (HPC).
Setting [4] is: dose: 50.0 mg/kg/injection, schedule: Q01DX005 (ip), vehicle: Klucel (hydroxypropylcellulose) (HPC).
Setting [5] is: dose: 100.0 mg/kg/injection, schedule: Q01DX005 (ip), vehicle: Klucel (hydroxypropylcellulose) (HPC).
Setting [6] is: dose: 12.5 mg/kg/injection, schedule: Q01DX005 (ip), vehicle: saline with Tween-80.
[7] abbreviates: dose: 25.0 mg/kg/injection, schedule: Q01DX005 (ip), vehicle: saline with Tween-80.
Setting [8] is: dose: 50.0 mg/kg/injection, schedule: Q01DX005 (ip), vehicle: saline with Tween-80.
The mark [9] stands for this setting: dose: 60.0 mg/kg/injection, schedule: Q01DX005 (ip), vehicle: saline with Tween-80.
Where [10] appears, read: dose: 120.0 mg/kg/injection, schedule: Q01DX005 (ip), vehicle: saline with Tween-80.

Values joined by “and” are separate entries in the source; they are usually repeats but may differ in a detail not shown here. Identical values can stand only once. Inconclusive results and toxic doses are left out.

Turning to `CC1=CC(=N\S(=O)(=O)c2ccccc2)/c2ccccc2/C1=N/S(=O)(=O)c1ccccc1`, the T/C runs as follows: (dose: 12.5 mg/kg/injection, schedule: Q01DX001 (ip), vehicle: saline with Tween-80) 104 % of control; (dose: 25.0 mg/kg/injection, schedule: Q01DX001 (ip), vehicle: saline with Tween-80) 100 % of control; (dose: 50.0 mg/kg/injection, schedule: Q01DX001 (ip), vehicle: saline with Tween-80) 95 % of control.
Regarding `C#CCOC(=O)Nc1nc2ccc([N+](=O)[O-])cc2s1`, the T/C under setting [1] was 101 % of control, the T/C under setting [2] is 99 % of control and the T/C under setting [3] is 92 % of control.
On to `NCCc1cc(O)c(O)c(O)c1`, for which the T/C is 108 % of control and 109 % of control (dose: 50.0 mg/kg/injection, schedule: Q01DX009 (ip), vehicle: saline); 117 % of control (dose: 100.0 mg/kg/injection, schedule: Q01DX009 (ip), vehicle: saline); 153 % of control and 168 % of control (dose: 400.0 mg/kg/injection, schedule: Q01DX009 (ip), vehicle: saline).
With `C/C=C/C=C\C=C/C(O)CC(OP(=O)(O)O)C(C)(O)/C=C/C1CC=CC(=O)O1` (stereo unspecified), the T/C reads like this: (dose: 0.75 mg/kg/injection, schedule: Q01DX005 (ip), vehicle: water) 116 % of control; (dose: 1.5 mg/kg/injection, schedule: Q01DX005 (ip), vehicle: water) 119 % of control; (dose: 6.25 mg/kg/injection, schedule: Q01DX005 (ip), vehicle: water) 183 % of control.
`CC(C)N(CCO)CCO`: the T/C runs as follows: (dose: 50.0 mg/kg/injection, schedule: Q01DX005 (ip), vehicle: saline) 104 % of control; (dose: 100.0 mg/kg/injection, schedule: Q01DX005 (ip), vehicle: saline) 98 % of control; (dose: 200.0 mg/kg/injection, schedule: Q01DX005 (ip), vehicle: saline) 100 % of control.
As for `O=C1c2ccc([N+](=O)[O-])cc2NC(O)c2cccn21` (stereo unspecified), the T/C by setting is: (dose: 0.1 mg/kg/injection, schedule: Q01DX005 (ip), vehicle: water) 96 % of control; (dose: 0.2 mg/kg/injection, schedule: Q01DX005 (ip), vehicle: water) 96 % of control; (dose: 0.4 mg/kg/injection, schedule: Q01DX005 (ip), vehicle: water) 91 % of control; (dose: 0.8 mg/kg/injection, schedule: Q01DX005 (ip), vehicle: water) 96 % of control; (dose: 1.6 mg/kg/injection, schedule: Q01DX005 (ip), vehicle: water) 96 % of control; (dose: 5.0 mg/kg/injection, schedule: Q01DX005 (ip), vehicle: distilled water + Tween-80) 99 % of control. In addition, the T/C runs as follows: (dose: 10.0 mg/kg/injection, schedule: Q01DX005 (ip), vehicle: distilled water + Tween-80) 95 % of control; (dose: 20.0 mg/kg/injection, schedule: Q01DX005 (ip), vehicle: distilled water + Tween-80) 95 % of control; (dose: 40.0 mg/kg/injection, schedule: Q01DX005 (ip), vehicle: distilled water + Tween-80) 91 % of control; (dose: 80.0 mg/kg/injection, schedule: Q01DX005 (ip), vehicle: distilled water + Tween-80) 91 % of control.
Regarding `CCN(CC)CCOC(=O)C(OCCC(C)C)(c1ccccc1)c1ccccc1`, the T/C runs as follows: under setting [4], 113 % of control; under setting [5], 113 % of control.
As for `CCN1Cc2c(/C=C/c3ccccc3)nc3ccc(OC)cc3c2N(c2cccc(Cl)c2)C1`, the T/C runs as follows: (dose: 25.0 mg/kg/injection, schedule: Q01DX009 (ip), vehicle: Klucel (hydroxypropylcellulose) (HPC)) 103 % of control; under setting [1], 94 % of control; under setting [2], 102 % of control; under setting [3], 98 % of control.
For `N=C(N)c1nn(C2OC(CO)C(O)C2O)c2nc[nH]c(=O)c12` (stereo unspecified), the T/C is 121 % of control under setting [6] and 124 % of control under setting [7].
On to `O=NN1CCCNC1=O`, for which the T/C is, setting by setting: (dose: 12.5 mg/kg/injection, schedule: Q04DX003 (ip), vehicle: saline) 118 % of control; (dose: 20.0 mg/kg/injection, schedule: Q01DX009 (ip), vehicle: saline with Tween-80) 163 % of control; (dose: 37.5 mg/kg/injection, schedule: Q01DX009 (ip), vehicle: saline with Tween-80) 163 % of control; (dose: 40.0 mg/kg/injection, schedule: Q01DX009 (ip), vehicle: saline with Tween-80) 231 % of control; (dose: 50.0 mg/kg/injection, schedule: Q04DX003 (ip), vehicle: saline) 172 % of control; (dose: 66.0 mg/kg/injection, schedule: Q04DX003 (ip), vehicle: saline) 179 % of control. The T/C runs as follows: (dose: 75.0 mg/kg/injection, schedule: Q01DX009 (ip), vehicle: saline with Tween-80) 86 % of control; (dose: 100.0 mg/kg/injection, schedule: Q04DX003 (ip), vehicle: saline) 191 % of control and 216 % of control.
For `CCOC(=O)c1ccc(N2N=C3C(=CC(=O)c4ccccc43)SCC2=O)cc1`, the T/C by setting is: under setting [6], 112 % of control; under setting [7], 117 % of control; under setting [8], 116 % of control.
Take `CSc1nnc(CCC(=O)Nc2ccc(Cl)cc2Cl)o1`: the T/C under setting [9] was 106 % of control and the T/C under setting [10] was 108 % of control.
On to `COC(=O)C1C(=O)C(NC(=O)CCCCl)C(c2ccccc2)C(C(=O)OC)C1=O` (stereo unspecified), for which the T/C was 103 % of control under setting [6]; 106 % of control under setting [7]; 99 % of control under setting [8]; 101 % of control under setting [9]; 102 % of control (dose: 100.0 mg/kg/injection, schedule: Q01DX005 (ip), vehicle: saline with Tween-80); 94 % of control under setting [10]. Further, the T/C is, setting by setting: (dose: 200.0 mg/kg/injection, schedule: Q01DX005 (ip), vehicle: saline with Tween-80) 103 % of control; (dose: 240.0 mg/kg/injection, schedule: Q01DX005 (ip), vehicle: saline with Tween-80) 97 % of control.
`O=C1C(C(=Nc2ccccc2Cl)c2ccccc2)=C(O)c2ccccc21`: the T/C is 99 % of control (dose: 25.0 mg/kg/injection, schedule: Q04DX002 (ip), vehicle: saline with Tween-80); 92 % of control (dose: 50.0 mg/kg/injection, schedule: Q04DX002 (ip), vehicle: saline with Tween-80); 93 % of control (dose: 100.0 mg/kg/injection, schedule: Q04DX002 (ip), vehicle: saline with Tween-80).
Consider `CCOC(=O)c1ccc(OC)c2[nH]c3c(c(=O)c12)C(=O)c1[nH]c2c(OC)ccc(C(=O)OCC)c2c(=O)c1C3=O`, for which the T/C is 97 % of control (dose: 100.0 mg/kg/injection, schedule: Q04DX003 (ip), vehicle: Klucel (hydroxypropylcellulose) (HPC)); 103 % of control (dose: 200.0 mg/kg/injection, schedule: Q04DX003 (ip), vehicle: Klucel (hydroxypropylcellulose) (HPC)); 100 % of control (dose: 400.0 mg/kg/injection, schedule: Q04DX003 (ip), vehicle: Klucel (hydroxypropylcellulose) (HPC)).
On to `CCNCCNc1cc(O)c2c(c1O)C(=O)c1ccccc1C2=O`, for which the T/C (dose: 25.0 mg/kg/injection, schedule: Q01DX005 (ip), vehicle: Klucel (hydroxypropylcellulose) (HPC)) is 101 % of control and 102 % of control; the T/C under setting [4] was 110 % of control and 111 % of control; the T/C under setting [5] was 111 % of control and 112 % of control; the T/C (dose: 200.0 mg/kg/injection, schedule: Q01DX005 (ip), vehicle: Klucel (hydroxypropylcellulose) (HPC)) is 122 % of control.
As for `CN(C)C(=O)CC(c1ccccc1)C(CO)c1ccccc1` (stereo unspecified), the T/C is, setting by setting: (dose: 25.0 mg/kg/injection, schedule: Q01DX001 (ip), vehicle: Klucel (hydroxypropylcellulose) (HPC)) 88 % of control; (dose: 50.0 mg/kg/injection, schedule: Q01DX001 (ip), vehicle: Klucel (hydroxypropylcellulose) (HPC)) 91 % of control; (dose: 100.0 mg/kg/injection, schedule: Q01DX001 (ip), vehicle: Klucel (hydroxypropylcellulose) (HPC)) 89 % of control; (dose: 200.0 mg/kg/injection, schedule: Q01DX001 (ip), vehicle: Klucel (hydroxypropylcellulose) (HPC)) 88 % of control.
Consider `O=C1CC2(Cl)CN3c4ccccc4C(=O)CC3(Cl)CN2c2ccccc21` (stereo unspecified), for which the T/C (dose: 12.5 mg/kg/injection, schedule: Q04DX003 (ip), vehicle: alcohol) is 100 % of control and 106 % of control; the T/C (dose: 25.0 mg/kg/injection, schedule: Q04DX003 (ip), vehicle: alcohol) was 99 % of control and 106 % of control; the T/C (dose: 50.0 mg/kg/injection, schedule: Q04DX003 (ip), vehicle: alcohol) was 100 % of control and 108 % of control.
